Active and inactive are the calls of the source.
Assays:
[1] = molecular target: Uncharacterized aarF domain-containing protein kinase 5 (Homo sapiens, UniProt Q3MIX3)
[2] = molecular target: Cyclin-dependent kinase 17 (Homo sapiens, UniProt Q00537)
[3] = molecular target: T1, ATP-dependent RNA helicase DHX30 (Homo sapiens, UniProt Q7L2E3)
T1 sequence (Q7L2E3 whole entry): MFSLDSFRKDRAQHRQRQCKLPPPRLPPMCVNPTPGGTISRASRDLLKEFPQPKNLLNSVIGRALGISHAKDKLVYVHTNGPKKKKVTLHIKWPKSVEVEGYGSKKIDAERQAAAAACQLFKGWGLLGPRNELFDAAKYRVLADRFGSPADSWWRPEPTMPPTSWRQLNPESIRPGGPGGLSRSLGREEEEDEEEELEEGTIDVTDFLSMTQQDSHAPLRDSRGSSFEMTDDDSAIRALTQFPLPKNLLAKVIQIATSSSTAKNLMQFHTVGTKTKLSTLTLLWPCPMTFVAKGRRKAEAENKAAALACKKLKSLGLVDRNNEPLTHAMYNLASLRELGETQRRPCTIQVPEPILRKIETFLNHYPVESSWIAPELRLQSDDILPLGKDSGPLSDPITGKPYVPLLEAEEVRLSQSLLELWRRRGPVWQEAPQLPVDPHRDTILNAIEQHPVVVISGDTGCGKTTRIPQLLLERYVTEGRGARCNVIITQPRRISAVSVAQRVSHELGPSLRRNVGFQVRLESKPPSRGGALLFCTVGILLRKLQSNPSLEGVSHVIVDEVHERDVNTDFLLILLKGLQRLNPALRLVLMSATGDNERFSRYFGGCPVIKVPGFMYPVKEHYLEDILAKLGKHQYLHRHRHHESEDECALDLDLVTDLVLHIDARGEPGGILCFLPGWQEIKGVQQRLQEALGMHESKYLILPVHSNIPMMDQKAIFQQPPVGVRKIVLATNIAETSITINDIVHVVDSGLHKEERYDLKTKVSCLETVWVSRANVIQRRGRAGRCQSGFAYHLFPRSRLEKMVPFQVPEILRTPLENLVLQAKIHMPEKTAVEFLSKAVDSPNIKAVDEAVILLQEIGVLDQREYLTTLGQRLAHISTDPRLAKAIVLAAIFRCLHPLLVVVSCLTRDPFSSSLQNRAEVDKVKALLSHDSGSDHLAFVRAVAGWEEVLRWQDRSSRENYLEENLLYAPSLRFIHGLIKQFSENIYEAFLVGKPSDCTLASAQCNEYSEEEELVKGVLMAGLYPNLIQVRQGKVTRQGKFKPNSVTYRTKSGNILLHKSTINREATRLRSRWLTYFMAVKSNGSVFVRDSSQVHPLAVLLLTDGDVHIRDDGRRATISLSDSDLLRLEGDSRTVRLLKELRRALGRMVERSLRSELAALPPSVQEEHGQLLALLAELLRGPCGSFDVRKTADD

[4] = molecular target: T2, Isoleucine--tRNA ligase, mitochondrial (Homo sapiens, UniProt Q9NSE4)
T2 sequence (Q9NSE4 whole entry): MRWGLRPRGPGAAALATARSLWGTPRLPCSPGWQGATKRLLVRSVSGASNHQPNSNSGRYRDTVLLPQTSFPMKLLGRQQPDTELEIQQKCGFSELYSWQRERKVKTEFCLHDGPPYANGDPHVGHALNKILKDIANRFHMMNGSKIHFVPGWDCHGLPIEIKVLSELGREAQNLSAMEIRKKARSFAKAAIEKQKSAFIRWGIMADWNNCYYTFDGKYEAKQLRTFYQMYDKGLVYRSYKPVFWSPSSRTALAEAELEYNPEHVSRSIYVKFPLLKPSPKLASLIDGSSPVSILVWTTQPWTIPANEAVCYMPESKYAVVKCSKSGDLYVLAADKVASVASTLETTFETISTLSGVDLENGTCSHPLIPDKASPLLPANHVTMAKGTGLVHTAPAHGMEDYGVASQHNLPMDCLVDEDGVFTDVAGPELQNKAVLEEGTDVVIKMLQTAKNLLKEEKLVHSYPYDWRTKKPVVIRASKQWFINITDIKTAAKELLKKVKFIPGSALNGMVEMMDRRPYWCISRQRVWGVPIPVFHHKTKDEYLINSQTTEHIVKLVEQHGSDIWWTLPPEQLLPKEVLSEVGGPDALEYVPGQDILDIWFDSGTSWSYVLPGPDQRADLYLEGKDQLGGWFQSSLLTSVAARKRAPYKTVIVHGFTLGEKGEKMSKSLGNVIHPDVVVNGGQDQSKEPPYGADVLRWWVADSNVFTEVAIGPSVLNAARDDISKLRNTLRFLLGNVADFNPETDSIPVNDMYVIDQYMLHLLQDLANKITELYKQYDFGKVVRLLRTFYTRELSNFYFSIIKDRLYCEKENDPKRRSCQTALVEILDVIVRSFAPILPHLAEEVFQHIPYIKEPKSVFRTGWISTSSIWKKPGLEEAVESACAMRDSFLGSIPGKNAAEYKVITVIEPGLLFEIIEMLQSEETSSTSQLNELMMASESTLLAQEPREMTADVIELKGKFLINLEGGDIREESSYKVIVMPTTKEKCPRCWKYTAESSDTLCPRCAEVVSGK

[5] = molecular target: Tyrosine-protein kinase Lck (Homo sapiens, UniProt P06239)
Tyrosine-protein kinase Lck, sequence (P06239 whole entry): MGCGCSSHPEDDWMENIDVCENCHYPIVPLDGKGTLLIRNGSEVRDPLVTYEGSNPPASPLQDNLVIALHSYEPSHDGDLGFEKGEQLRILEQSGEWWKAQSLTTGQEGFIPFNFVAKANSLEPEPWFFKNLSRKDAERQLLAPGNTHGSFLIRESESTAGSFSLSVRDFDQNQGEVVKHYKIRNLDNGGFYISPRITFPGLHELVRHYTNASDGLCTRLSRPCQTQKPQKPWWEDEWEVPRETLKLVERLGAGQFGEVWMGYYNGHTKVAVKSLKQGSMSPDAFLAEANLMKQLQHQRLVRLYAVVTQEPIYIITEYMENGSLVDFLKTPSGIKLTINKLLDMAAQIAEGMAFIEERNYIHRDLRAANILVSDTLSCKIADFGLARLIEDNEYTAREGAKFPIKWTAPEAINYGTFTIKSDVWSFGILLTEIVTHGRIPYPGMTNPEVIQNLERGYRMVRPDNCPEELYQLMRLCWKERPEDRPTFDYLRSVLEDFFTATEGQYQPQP

[6] = molecular target: Mitogen-activated protein kinase 14 (Homo sapiens, UniProt Q16539)
[7] = molecular target: Phosphatidylethanolamine-binding protein 1 (Homo sapiens, UniProt P30086)
Phosphatidylethanolamine-binding protein 1, sequence (P30086 whole entry): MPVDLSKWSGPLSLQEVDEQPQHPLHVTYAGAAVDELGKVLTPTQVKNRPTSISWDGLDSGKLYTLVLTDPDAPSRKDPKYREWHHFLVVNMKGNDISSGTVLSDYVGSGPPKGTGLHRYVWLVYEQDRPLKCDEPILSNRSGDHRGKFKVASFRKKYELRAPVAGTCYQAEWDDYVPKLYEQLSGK

[8] = molecular target: Serine/threonine-protein kinase N3 (Homo sapiens, UniProt Q6P5Z2)
Serine/threonine-protein kinase N3, sequence (Q6P5Z2 whole entry): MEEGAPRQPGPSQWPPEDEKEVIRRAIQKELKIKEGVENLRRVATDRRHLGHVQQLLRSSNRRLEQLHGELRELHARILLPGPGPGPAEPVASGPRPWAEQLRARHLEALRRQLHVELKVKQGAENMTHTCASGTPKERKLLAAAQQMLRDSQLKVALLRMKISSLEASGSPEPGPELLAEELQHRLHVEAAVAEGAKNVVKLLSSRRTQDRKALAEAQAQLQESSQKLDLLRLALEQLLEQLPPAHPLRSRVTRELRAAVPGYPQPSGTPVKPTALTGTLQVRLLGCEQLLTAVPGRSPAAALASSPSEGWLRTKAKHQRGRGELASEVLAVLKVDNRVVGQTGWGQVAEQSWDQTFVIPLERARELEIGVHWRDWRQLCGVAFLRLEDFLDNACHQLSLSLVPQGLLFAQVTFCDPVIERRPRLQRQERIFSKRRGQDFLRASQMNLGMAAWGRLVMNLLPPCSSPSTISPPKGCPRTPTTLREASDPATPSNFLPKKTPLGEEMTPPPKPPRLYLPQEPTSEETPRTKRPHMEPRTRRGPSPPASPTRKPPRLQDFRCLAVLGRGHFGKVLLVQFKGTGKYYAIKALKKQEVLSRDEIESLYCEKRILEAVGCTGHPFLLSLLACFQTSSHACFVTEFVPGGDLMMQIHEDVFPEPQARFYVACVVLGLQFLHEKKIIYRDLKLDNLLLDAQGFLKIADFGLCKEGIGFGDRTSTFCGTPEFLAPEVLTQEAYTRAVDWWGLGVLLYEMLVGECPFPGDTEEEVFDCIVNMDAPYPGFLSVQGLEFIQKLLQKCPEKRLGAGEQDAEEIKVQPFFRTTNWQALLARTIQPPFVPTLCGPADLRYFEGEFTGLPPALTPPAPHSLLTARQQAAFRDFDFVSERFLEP

[9] = molecular target: Protein kinase C theta type (Homo sapiens, UniProt Q04759)
Focal adhesion kinase 1 = Focal adhesion kinase 1 (Homo sapiens, UniProt Q05397)
Focal adhesion kinase 1, sequence (Q05397 whole entry): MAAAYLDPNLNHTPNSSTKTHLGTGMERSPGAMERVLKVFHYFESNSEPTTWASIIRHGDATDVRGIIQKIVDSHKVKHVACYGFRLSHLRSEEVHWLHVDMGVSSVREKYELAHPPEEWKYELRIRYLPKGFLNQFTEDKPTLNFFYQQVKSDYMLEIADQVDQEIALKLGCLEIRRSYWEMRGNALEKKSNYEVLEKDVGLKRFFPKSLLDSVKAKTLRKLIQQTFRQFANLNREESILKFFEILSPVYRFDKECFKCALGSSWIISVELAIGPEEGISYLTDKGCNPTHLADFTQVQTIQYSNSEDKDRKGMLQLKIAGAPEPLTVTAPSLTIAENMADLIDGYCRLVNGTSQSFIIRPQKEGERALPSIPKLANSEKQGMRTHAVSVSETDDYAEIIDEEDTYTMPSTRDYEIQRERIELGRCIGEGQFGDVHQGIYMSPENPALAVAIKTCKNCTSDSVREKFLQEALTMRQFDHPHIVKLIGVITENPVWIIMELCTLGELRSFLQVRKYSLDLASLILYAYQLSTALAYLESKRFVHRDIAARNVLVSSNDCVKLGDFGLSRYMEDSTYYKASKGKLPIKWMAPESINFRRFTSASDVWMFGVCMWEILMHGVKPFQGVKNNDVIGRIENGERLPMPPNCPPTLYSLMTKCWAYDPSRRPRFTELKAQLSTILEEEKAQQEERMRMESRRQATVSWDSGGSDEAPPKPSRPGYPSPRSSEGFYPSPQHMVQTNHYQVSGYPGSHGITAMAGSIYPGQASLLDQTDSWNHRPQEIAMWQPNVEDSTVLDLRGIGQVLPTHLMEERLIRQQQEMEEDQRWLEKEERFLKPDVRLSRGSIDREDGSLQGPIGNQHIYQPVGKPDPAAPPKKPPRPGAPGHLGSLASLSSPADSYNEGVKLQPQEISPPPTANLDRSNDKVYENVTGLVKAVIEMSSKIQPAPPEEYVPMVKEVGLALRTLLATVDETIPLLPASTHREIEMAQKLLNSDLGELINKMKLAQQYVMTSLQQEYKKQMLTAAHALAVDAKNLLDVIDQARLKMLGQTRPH

[10] = molecular target: Proto-oncogene tyrosine-protein kinase receptor Ret (Homo sapiens, UniProt P07949)
[11] = molecular target: DNA topoisomerase 2-alpha (Homo sapiens, UniProt P11388)
[12] = molecular target: Epidermal growth factor receptor (Homo sapiens, UniProt P00533)
Epidermal growth factor receptor, sequence (P00533 whole entry): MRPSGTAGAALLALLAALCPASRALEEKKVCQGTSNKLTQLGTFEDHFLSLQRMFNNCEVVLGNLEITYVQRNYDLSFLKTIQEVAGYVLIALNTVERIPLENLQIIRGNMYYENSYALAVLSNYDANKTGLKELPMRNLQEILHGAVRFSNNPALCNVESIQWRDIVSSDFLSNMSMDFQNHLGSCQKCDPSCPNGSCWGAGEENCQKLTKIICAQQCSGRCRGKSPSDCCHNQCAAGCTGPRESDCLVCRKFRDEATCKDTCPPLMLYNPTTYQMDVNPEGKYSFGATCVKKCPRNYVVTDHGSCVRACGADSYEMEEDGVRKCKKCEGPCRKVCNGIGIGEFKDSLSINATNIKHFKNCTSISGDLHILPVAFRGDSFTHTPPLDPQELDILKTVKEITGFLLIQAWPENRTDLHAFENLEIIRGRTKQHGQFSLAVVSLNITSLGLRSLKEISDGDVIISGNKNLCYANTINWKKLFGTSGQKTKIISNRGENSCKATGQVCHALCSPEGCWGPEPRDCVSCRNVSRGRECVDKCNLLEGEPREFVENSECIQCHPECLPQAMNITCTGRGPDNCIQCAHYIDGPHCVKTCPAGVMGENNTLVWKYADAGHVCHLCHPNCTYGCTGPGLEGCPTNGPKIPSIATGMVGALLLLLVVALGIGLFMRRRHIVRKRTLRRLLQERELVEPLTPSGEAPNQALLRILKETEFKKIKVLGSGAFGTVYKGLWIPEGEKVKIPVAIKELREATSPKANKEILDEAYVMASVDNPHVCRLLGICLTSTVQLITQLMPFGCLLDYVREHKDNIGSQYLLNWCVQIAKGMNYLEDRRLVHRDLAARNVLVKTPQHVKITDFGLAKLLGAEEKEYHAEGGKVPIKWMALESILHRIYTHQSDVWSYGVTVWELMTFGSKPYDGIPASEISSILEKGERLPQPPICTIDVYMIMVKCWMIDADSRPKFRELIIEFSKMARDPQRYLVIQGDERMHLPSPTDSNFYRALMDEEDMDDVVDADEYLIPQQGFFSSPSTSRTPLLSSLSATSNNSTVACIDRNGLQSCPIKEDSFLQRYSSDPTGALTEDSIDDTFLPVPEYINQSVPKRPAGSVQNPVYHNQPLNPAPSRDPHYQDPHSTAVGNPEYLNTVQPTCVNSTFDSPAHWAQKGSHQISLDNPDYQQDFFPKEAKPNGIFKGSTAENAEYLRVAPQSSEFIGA
Further: in the data inactive means no Kd found up to 30 µM.

Uncharacterized aarF domain-containing protein kinase 5, sequence (Q3MIX3 whole entry, the tested form may be a part): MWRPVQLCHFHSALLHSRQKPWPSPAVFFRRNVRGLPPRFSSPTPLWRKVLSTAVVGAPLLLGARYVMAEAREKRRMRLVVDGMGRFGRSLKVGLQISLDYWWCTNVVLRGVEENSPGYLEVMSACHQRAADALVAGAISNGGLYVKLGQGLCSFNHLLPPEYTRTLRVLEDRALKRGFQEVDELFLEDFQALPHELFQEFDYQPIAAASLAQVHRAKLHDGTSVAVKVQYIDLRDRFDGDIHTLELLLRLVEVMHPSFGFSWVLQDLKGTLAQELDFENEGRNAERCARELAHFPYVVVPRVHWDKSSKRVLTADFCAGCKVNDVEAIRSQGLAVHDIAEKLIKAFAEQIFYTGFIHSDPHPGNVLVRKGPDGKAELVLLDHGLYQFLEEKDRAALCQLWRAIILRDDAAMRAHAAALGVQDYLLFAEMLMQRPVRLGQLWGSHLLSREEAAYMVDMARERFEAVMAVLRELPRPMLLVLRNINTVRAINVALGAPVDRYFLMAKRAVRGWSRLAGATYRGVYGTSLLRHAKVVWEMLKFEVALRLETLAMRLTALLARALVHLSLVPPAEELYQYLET
Cyclin-dependent kinase 17, sequence (Q00537 whole entry): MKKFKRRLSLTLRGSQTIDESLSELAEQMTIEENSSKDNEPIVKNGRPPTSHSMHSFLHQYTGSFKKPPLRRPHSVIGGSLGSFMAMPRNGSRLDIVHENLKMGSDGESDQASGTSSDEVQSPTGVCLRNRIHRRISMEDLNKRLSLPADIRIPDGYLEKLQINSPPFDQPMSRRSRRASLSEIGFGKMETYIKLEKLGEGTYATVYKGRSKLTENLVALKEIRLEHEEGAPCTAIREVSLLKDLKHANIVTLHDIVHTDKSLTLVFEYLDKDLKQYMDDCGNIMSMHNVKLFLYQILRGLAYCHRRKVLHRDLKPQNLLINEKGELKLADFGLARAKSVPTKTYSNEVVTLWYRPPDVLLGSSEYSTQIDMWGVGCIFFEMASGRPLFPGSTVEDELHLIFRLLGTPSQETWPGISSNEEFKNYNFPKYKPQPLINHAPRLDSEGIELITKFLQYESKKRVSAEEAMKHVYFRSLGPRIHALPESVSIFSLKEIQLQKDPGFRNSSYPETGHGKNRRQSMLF

Row | SMILES | Kd [9] | Kd [1] | Kd [2] | Kd [3] | Kd [4] | Kd [5] | Kd [6] | Kd [7] | Kd [8] | Kd (Focal adhesion kinase 1) | Kd [10] | Kd [11] | Kd [12]
1 | Cn1cc(-c2[nH]c3cc(NC(=O)[C@H](N)C4CCCCC4)cc4c3c2C=NNC4=O)cn1 | > 30 µM (inactive) | > 30 µM (inactive) | > 30 µM (inactive) | > 30 µM (inactive) | > 30 µM (inactive) | 1.38 µM (active) | > 30 µM (inactive) | > 30 µM (inactive) | > 30 µM (inactive) | > 30 µM (inactive) | 0.01 µM (active) | > 30 µM (inactive) | –
2 | CN(c1ncccc1CNc1nc(Nc2ccc3c(c2)CC(=O)N3)ncc1C(F)(F)F)S(C)(=O)=O [PF-00562271] | – | > 30 µM (inactive) | 0.089 µM (active) | – | > 30 µM (inactive) | – | – | > 30 µM (inactive) | > 30 µM (inactive) | – | – | – | –
3 | COc1cc(F)c(F)c(Nc2ccc(I)cc2F)c1NS(=O)(=O)C1(C[C@H](O)CO)CC1 [REFAMETINIB] | > 30 µM (inactive) | – | > 30 µM (inactive) | > 30 µM (inactive) | > 30 µM (inactive) | > 30 µM (inactive) | > 30 µM (inactive) | > 30 µM (inactive) | – | > 30 µM (inactive) | > 30 µM (inactive) | – | > 30 µM (inactive)
4 | CC1(COc2ccc3c(c2)ncn3-c2ccc3cccc(N4CCC(N)CC4)c3n2)COC1 [CRENOLANIB] | – | > 30 µM (inactive) | > 30 µM (inactive) | > 30 µM (inactive) | > 30 µM (inactive) | – | > 30 µM (inactive) | > 30 µM (inactive) | > 30 µM (inactive) | > 30 µM (inactive) | 0.81 µM (active) | > 30 µM (inactive) | > 30 µM (inactive)
5 | COc1cc2c(N3CCN(C(=O)Nc4ccc(OC(C)C)cc4)CC3)ncnc2cc1OCCCN1CCCCC1 [TANDUTINIB] | – | – | – | – | – | – | – | – | > 30 µM (inactive) | – | – | – | –
6 | CCc1nc(C(N)=O)c(Nc2ccc(N3CCC(N4CCN(C)CC4)CC3)c(OC)c2)nc1NC1CCOCC1 [GILTERITINIB] | – | – | > 30 µM (inactive) | > 30 µM (inactive) | – | > 30 µM (inactive) | > 30 µM (inactive) | – | – | > 30 µM (inactive) | 0.05 µM (active) | > 30 µM (inactive) | 3.5 µM (active)
7 | CC[C@@](C)(Nc1ccnc(-c2c[nH]c3ncccc23)n1)C(=O)NCC(F)(F)F [DECERNOTINIB] | – | – | 0.139 µM (active) | > 30 µM (inactive) | – | > 30 µM (inactive) | > 30 µM (inactive) | – | – | > 30 µM (inactive) | > 30 µM (inactive) | 0.064 µM | > 30 µM (inactive)
8 | COc1cc2nccc(Oc3ccc(NC(=O)C4(C(=O)Nc5ccc(F)cc5)CC4)cc3)c2cc1OC [CABOZANTINIB] | > 30 µM (inactive) | – | > 30 µM (inactive) | > 30 µM (inactive) | > 30 µM (inactive) | 1.05 µM (active) | > 30 µM (inactive) | > 30 µM (inactive) | – | > 30 µM (inactive) | – | – | –
9 | C=CCN(/C=C1/C(=O)O[C@H](COC)[C@@]2(C)C1=C(O)C(=O)C1=C2[C@H](OC(C)=O)C[C@]2(C)C(=O)CC[C@@H]12)CC=C [SONOLISIB] | – | – | > 30 µM (inactive) | – | – | > 30 µM (inactive) | > 30 µM (inactive) | – | – | > 30 µM (inactive) | > 30 µM (inactive) | – | > 30 µM (inactive)

More lines, main results first:

Row | Kd [9] | SMILES | Kd [1] | Kd [2] | Kd [3] | Kd [4] | Kd [5] | Kd [6] | Kd [7] | Kd [8] | Kd (Focal adhesion kinase 1) | Kd [10] | Kd [11] | Kd [12]
10 | > 30 µM (inactive) | COc1cccc(Nc2ncnn3ccc(CN4CC[C@@H](N)[C@H](O)C4)c23)c1 [BMS-690514] | – | – | – | – | 0.514 µM (active) | > 30 µM (inactive) | > 30 µM (inactive) | – | > 30 µM (inactive) | 0.034 µM (active) | – | 0.225 µM (active)
11 | > 30 µM (inactive) | CCOc1ccn(-c2ccc(F)cc2)c(=O)c1C(=O)Nc1ccc(Oc2ccnc(N)c2Cl)c(F)c1 [BMS-777607] | – | – | > 30 µM (inactive) | > 30 µM (inactive) | – | > 30 µM (inactive) | > 30 µM (inactive) | – | – | – | – | –
12 | > 30 µM (inactive) | CC(C)(O)CC(=O)NCCn1ccc2ncnc(Nc3ccc(Oc4cccc(C(F)(F)F)c4)c(Cl)c3)c21 [TAK-285] | – | > 30 µM (inactive) | > 30 µM (inactive) | – | – | > 30 µM (inactive) | > 30 µM (inactive) | > 30 µM (inactive) | > 30 µM (inactive) | > 30 µM (inactive) | – | –

From ChEMBL document CHEMBL3991601, “The target landscape of clinical kinase drugs” (Science, 2017)
